From the supplement of paper PMC10883282

Key:
Assay in all cases: relative viability vs DMSO control (72 h) (fraction); higher = more viable cells
RD-ES = system: RD-ES
In short: (§1)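 Sarcoma cell lines were grown in 384-well plates seeded toward 80–90% confluence and exposed 24 h later to serially diluted compound. After 72 h at 37 °C and 5% CO2, with 0.1% DMSO vehicle and a 5 µM positive control on the plates, ATPLite was read. Relative viability, given as percent growth averaged over up to triplicate wells, was rescaled so that 1 is full and 0 is none.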

SYO-1 = system: SYO-1
In short: as §1

SK-ES-1 = system: SK-ES-1
In short: as §1

G401 = system: G401
In short: as §1

VA-ES-BJ = system: VA-ES-BJ
In short: as §1

KHOS-240S = system: KHOS-240S
In short: as §1

HT1080 = system: HT1080
In short: as §1

RD = system: RD
In short: as §1

SW982 = system: SW982
In short: as §1

SW1353 = system: SW1353
In short: as §1

SK-LMS-1 = system: SK-LMS-1
In short: as §1

MES-SA = system: MES-SA
In short: as §1

Cc1cc(Nc2ncc(Cl)c(Nc3ccccc3S(=O)(=O)C(C)C)n2)c(OC(C)C)cc1C1CCNCC1 [Ceritinib]
Details	relative viability
G401, 0.00017 µM	0.953
G401, 0.00051 µM	0.932
G401, 0.00152 µM	0.971
G401, 0.00457 µM	0.974
G401, 0.01372 µM	0.972
G401, 0.04115 µM	0.961
G401, 0.1235 µM	0.918
G401, 0.3704 µM	0.788
G401, 1.111 µM	0.615
G401, 3.333 µM	0.416
G401, 10 µM	-0.00287
HT1080, 0.00017 µM	1.02
HT1080, 0.00051 µM	1.01
HT1080, 0.00152 µM	1.02
HT1080, 0.00457 µM	1.04
HT1080, 0.01372 µM	1.02
HT1080, 0.04115 µM	1.06
HT1080, 0.1235 µM	1.04
HT1080, 0.3704 µM	1.03
HT1080, 1.111 µM	0.983
HT1080, 3.333 µM	0.777
HT1080, 10 µM	-0.000267
KHOS-240S, 0.00017 µM	0.991
KHOS-240S, 0.00051 µM	0.992
KHOS-240S, 0.00152 µM	1
KHOS-240S, 0.00457 µM	1.01
KHOS-240S, 0.01372 µM	1.01
KHOS-240S, 0.04115 µM	1.02
KHOS-240S, 0.1235 µM	0.9951
KHOS-240S, 0.3704 µM	0.897
KHOS-240S, 1.111 µM	0.826
KHOS-240S, 3.333 µM	0.439
KHOS-240S, 10 µM	0.0022
MES-SA, 0.00017 µM	0.953
MES-SA, 0.00051 µM	0.92
MES-SA, 0.00152 µM	0.95
MES-SA, 0.00457 µM	0.951
MES-SA, 0.01372 µM	0.963
MES-SA, 0.04115 µM	0.969
MES-SA, 0.1235 µM	0.96
MES-SA, 0.3704 µM	0.98
MES-SA, 1.111 µM	0.94
MES-SA, 3.333 µM	0.676
MES-SA, 10 µM	-0.00177
RD, 0.00017 µM	0.996
RD, 0.00051 µM	1.02
RD, 0.00152 µM	1.04
RD, 0.00457 µM	0.996
RD, 0.01372 µM	1.03
RD, 0.04115 µM	1.02
RD, 0.1235 µM	0.947
RD, 0.3704 µM	0.771
RD, 1.111 µM	0.576
RD, 3.333 µM	0.381
RD, 10 µM	0.001
RD-ES, 0.00017 µM	0.94
RD-ES, 0.00051 µM	0.938
RD-ES, 0.00152 µM	0.955
RD-ES, 0.00457 µM	0.957
RD-ES, 0.01372 µM	0.955
RD-ES, 0.04115 µM	0.943
RD-ES, 0.1235 µM	0.89
RD-ES, 0.3704 µM	0.681
RD-ES, 1.111 µM	0.454
RD-ES, 3.333 µM	0.304
RD-ES, 10 µM	0.00243
SK-ES-1, 0.00017 µM	0.967
SK-ES-1, 0.00051 µM	0.984
SK-ES-1, 0.00152 µM	1
SK-ES-1, 0.00457 µM	0.974
SK-ES-1, 0.01372 µM	0.961
SK-ES-1, 0.04115 µM	0.995
SK-ES-1, 0.1235 µM	0.914
SK-ES-1, 0.3704 µM	0.6537
SK-ES-1, 1.111 µM	0.339
SK-ES-1, 3.333 µM	0.102
SK-ES-1, 10 µM	0.000733
SK-LMS-1, 0.00017 µM	1.01
SK-LMS-1, 0.00051 µM	1.04
SK-LMS-1, 0.00152 µM	1.04
SK-LMS-1, 0.00457 µM	1.03
SK-LMS-1, 0.01372 µM	1.022
SK-LMS-1, 0.04115 µM	1.01
SK-LMS-1, 0.1235 µM	1.05
SK-LMS-1, 0.3704 µM	0.959
SK-LMS-1, 1.111 µM	0.96
SK-LMS-1, 3.333 µM	0.794
SK-LMS-1, 10 µM	0.00573
SW982, 0.00017 µM	0.974
SW982, 0.00051 µM	0.943
SW982, 0.00152 µM	0.946
SW982, 0.00457 µM	0.92
SW982, 0.01372 µM	0.959
SW982, 0.04115 µM	0.9674
SW982, 0.1235 µM	0.902
SW982, 0.3704 µM	0.765
SW982, 1.111 µM	0.64
SW982, 3.333 µM	0.311
SW982, 10 µM	0.00217
SW1353, 0.00017 µM	0.94
SW1353, 0.00051 µM	0.939
SW1353, 0.00152 µM	0.969
SW1353, 0.00457 µM	0.953
SW1353, 0.01372 µM	0.948
SW1353, 0.04115 µM	0.953
SW1353, 0.1235 µM	0.932
SW1353, 0.3704 µM	0.89
SW1353, 1.111 µM	0.901
SW1353, 3.333 µM	0.137
SW1353, 10 µM	0.00227
SYO-1, 0.00017 µM	1.02
SYO-1, 0.00051 µM	1.02
SYO-1, 0.00152 µM	1.06
SYO-1, 0.00457 µM	1.07
SYO-1, 0.01372 µM	1.05
SYO-1, 0.04115 µM	1.01
SYO-1, 0.1235 µM	0.987
SYO-1, 0.3704 µM	0.919
SYO-1, 1.111 µM	0.882
SYO-1, 3.333 µM	0.51
SYO-1, 10 µM	-0.00767
VA-ES-BJ, 0.00017 µM	1.05
VA-ES-BJ, 0.00051 µM	1.04
VA-ES-BJ, 0.00152 µM	1.04
VA-ES-BJ, 0.00457 µM	1.05
VA-ES-BJ, 0.01372 µM	1.06
VA-ES-BJ, 0.04115 µM	1.03
VA-ES-BJ, 0.1235 µM	1.02
VA-ES-BJ, 0.3704 µM	0.975
VA-ES-BJ, 1.111 µM	0.954
VA-ES-BJ, 3.333 µM	0.929
VA-ES-BJ, 10 µM	-0.008
